Test results reported in patent publication US11903959B2 (EMORY UNIVERSITY, priority 2017, dated 2024).
Read-outs that look alike come from different tables or passages of the source.

How the values were obtained:
[1] = mouse, in vivo
[2] = system: Vero cells
[3] = system: Huh-7 cells
[4] = system: HepG2 cells
[5] = system: CEM cells
[6] = cynomolgus monkey, in vivo, po; for AUC0->24 h / CL / t1/2 / tmax / Cmax: 0.4 mmol/kg
[7] = in vitro; conditions: monkey, microsomes
[8] = in vitro; conditions: human, microsomes
[9] = Plasma stability, mouse
[10] = Plasma stability, human
[11] = Plasma stability, monkey
[12] = system: Influenza A/California/07/2009 (H1N1); design: species or system ferrets; conditions: in vivo, po
[13] = system: Influenza A/Wisconsin/67/2005 (H3N2); design: species or system ferrets; conditions: in vivo
[14] = in vitro; conditions: mouse, microsomes
[15] = in vitro; conditions: rat, microsomes
[16] = in vitro; conditions: dog, microsomes

Row | SMILES | F ([6]; female) [%] | AUC0->24 h ([6]; female) [µM·h] | CL ([6]; female) [mL/min/kg] | t1/2 ([6]; female) [min] | tmax ([6]; female) [min] | AUC0->24 h ([6]; male) [µM·h] | CL ([6]; male) [mL/min/kg] | t1/2 ([6]; male) [min] | tmax ([6]; male) [min] | half-life [7] [min] | half-life [8] [min] | Plasma t1/2 [9] [min] | Plasma t1/2 [10] [min] | Plasma t1/2 [11] [min] | also measured
1 | O=c1nc(NO)ccn1[C@@H]1O[C@H](COP(=O)(O)OP(=O)(O)OP(=O)(O)O)[C@@H](O)[C@H]1O [EIDD-2061] |  |  |  |  |  |  |  |  |  |  |  |  |  |  | Brain Cmax ([1]; 225 mg/kg): 3.5 nmol/g; Brain Cmax ([1]; 750 mg/kg): 5.5 nmol/g; AUC0->t [2]: 13850 pmol · h/M cells; Cmax [2]: 872.0 pmol/M Cells; tmax [2]: 960 min; AUC0->t [3]: 14640 pmol · h/M cells; Cmax [3]: 1113.3 pmol/M Cells; tmax [3]: 1440 min; AUC0->t [4]: 299.8 pmol · h/M cells; Cmax [4]: 470.3 pmol/M Cells; tmax [4]: 960 min; AUC0->t [5]: 2355 pmol · h/M cells; Cmax [5]: 171.3 pmol/M Cells; tmax [5]: 1440 min
2 | CC(C)C(=O)OC[C@H]1O[C@@H](n2ccc(NO)nc2=O)[C@H](OC(=O)C(C)C)[C@@H]1OC(=O)C(C)C [EIDD-2800] | ~16 | 27.4 ± 11.5 | 265 ± 128 | 264 ± 72 | 18.6 ± 7.2 | 38.9 ± 7.58 | 152 ± 21.7 | 330 ± 252 | 22.2 ± 8.4 | 2 | 1 | 1 | 1 | 2 | 
3 | CC(C)C(=O)OC[C@H]1O[C@@H](n2ccc(NO)nc2=O)[C@H](O)[C@@H]1O [EIDD-2801] | ~26 | 43.8 ± 17.0 | 172 ± 93.3 | 114 ± 78 | 75 ± 30 | 31.7 ± 7.82 | 217 ± 61.7 | 108 ± 54.6 | 120 ± 48.6 | 1 | 73 |  |  |  | Fever [12]: completely avoided; Viral titers in nasal lavage samples [12]: greatly reduced; viral titers in nasal lavage samples and fever [12]: rapidly reduce viral titers in nasal lavage samples as well as fever; viral titers in nasal lavage and turbinates ([13]; 20 mg/kg): greatly reduced; Viral titers in nasal lavage, fever, and viral titers in turbinates ([13]; 100 mg/kg): greatly reduced; Cmax ([6]; female): 12.3 ± 2.33 µM; Cmax ([6]; male): 8.08 ± 1.32 µM; half-life [14]: 2 min; half-life [15]: 5 min; half-life [16]: 1 min
4 | CC(C)[C@H](N)C(=O)OC[C@H]1O[C@@H](n2ccc(NO)nc2=O)[C@H](O)[C@@H]1O [EIDD-2898] |  |  |  |  |  |  |  |  |  |  |  | 144 | 198 | 138 | F [6]: ~15%; F* [6]: ~18%
